Reference: publication PMC9781010, “Polyphenolic Compounds Isolated from Marine Algae Attenuate the Replication of SARS-CoV-2 in the Host Cell through a Multi-Target Approach of 3CL^pro and PL^pro” (Marine Drugs, 2022)
Like-named read-outs stand apart in the source and are kept apart here.

How the values were obtained:
PL^pro (SARS-CoV-2) = PL^pro (SARS-CoV-2) (Severe acute respiratory syndrome coronavirus 2, UniProt P0DTD1); test: biochemical; type: biochemical; conditions: for Mode of inhibition (Lineweaver–Burk plot): PL^pro, Vmax unchanged, Km increased with inhibitor concentration
3CL^pro [1] = target: 3CL^pro (UniProt P0DTD1); test: Cell-based 3CLpro cleavage inhibition assay (dual luciferase, Vero-E6 cells); design: species or system SARS-CoV-2
Sequence of 3CL^pro (UniProt P0DTD1) (P08659 whole entry, looked up, other chains not shown): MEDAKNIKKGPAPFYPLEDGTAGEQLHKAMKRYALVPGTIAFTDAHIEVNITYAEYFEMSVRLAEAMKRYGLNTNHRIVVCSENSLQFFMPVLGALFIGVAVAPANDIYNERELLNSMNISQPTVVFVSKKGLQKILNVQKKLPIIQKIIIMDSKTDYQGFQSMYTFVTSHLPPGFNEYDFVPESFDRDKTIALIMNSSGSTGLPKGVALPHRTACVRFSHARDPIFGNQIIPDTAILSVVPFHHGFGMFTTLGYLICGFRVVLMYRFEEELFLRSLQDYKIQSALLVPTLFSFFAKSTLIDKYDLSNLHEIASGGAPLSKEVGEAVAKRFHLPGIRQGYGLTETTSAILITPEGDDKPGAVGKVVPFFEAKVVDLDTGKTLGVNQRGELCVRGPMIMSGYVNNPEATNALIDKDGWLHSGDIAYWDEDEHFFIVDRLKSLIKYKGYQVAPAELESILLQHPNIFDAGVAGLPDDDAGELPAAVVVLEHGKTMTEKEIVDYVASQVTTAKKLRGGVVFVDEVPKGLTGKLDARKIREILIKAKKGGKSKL

SARS-CoV-2 = test: Cytopathic effect (CPE) reduction assay; type: cell-based; conditions: for CPE reduction / inhibitory activity against SARS-CoV-2 (in words): no concentration stated
Method: The CPE reduction assay was performed according to the previously reported method. Briefly, the cells were seeded with 5 × 10^4 cells/well in a 96-well plate and incubated at 37 °C for 48 h. A total of 100 µL of the virus was treated in each well using DMEM media that was FBS free and 1% antibiotic to infect a 0.01 multiplicity of infection (MOI) and incubated for an additional 1 h at 37 °C. Subsequently, the infected cells were treated with samples after removing the virus and 72 h of incubation was performed, and the MTT solution was added and allowed to stand for a 4 h incubation period. The formazan crystals were dissolved and the absorbance was measured.

3CL^pro (SARS-CoV-2) = 3CL^pro (SARS-CoV-2) (Severe acute respiratory syndrome coronavirus 2, UniProt P0DTD1); test: biochemical; type: biochemical; conditions: for Mode of inhibition (Lineweaver–Burk plot): 3CL^pro, Vmax unchanged, Km increased with inhibitor concentration
PL^pro [2] = target: PL^pro (UniProt P0DTD1); test: Cell-based PLpro cleavage inhibition assay (dual luciferase, Vero-E6 cells); design: species or system SARS-CoV-2
Sequence of PL^pro (UniProt P0DTD1) (P08659 whole entry, looked up, other chains not shown): as above

3CL^pro [3] = target: 3CL^pro (UniProt P08659+P0DTD1); test: Cell-based 3CLpro cleavage inhibition assay (dual luciferase, Vero-E6 cells); design: species or system SARS-CoV-2; conditions: cell-based
Sequence of 3CL^pro (UniProt P08659+P0DTD1) (P08659 whole entry, looked up, other chains not shown): as above

PL^pro [4] = target: PL^pro (UniProt P08659+P0DTD1); test: Cell-based PLpro cleavage inhibition assay (dual luciferase, Vero-E6 cells); design: species or system SARS-CoV-2; conditions: cell-based
Sequence of PL^pro (UniProt P08659+P0DTD1) (P08659 whole entry, looked up, other chains not shown): as above

[5] = cell-free cleavage of PL^pro, fluorogenic substrate, read-out: IC50 Value
[6] = at 6.25 µM, compared to Dieckol
[7] = cell-free cleavage of 3CL^pro, fluorogenic substrate, read-out: IC50 Value

Row | SMILES | IC50 (PL^pro (SARS-CoV-2)) | Mode of inhibition (Lineweaver–Burk plot) (PL^pro (SARS-CoV-2)) | Cell-based inhibitory activity against proteolytic activity (in words) (3CL^pro [1]) | CPE reduction / inhibitory activity against SARS-CoV-2 (in words) (SARS-CoV-2) | IC50 (3CL^pro (SARS-CoV-2)) | Mode of inhibition (Lineweaver–Burk plot) (3CL^pro (SARS-CoV-2)) | Cell-based inhibitory activity against proteolytic activity (in words) (PL^pro [2]) | IC50 (PL^pro (SARS-CoV-2); [5]) | CPE reduction activity (SARS-CoV-2; [6]) | CPE reduction activity (SARS-CoV-2; at 25 µM) | IC50 (3CL^pro (SARS-CoV-2); [7]) | Concentrations with significant and dose-dependent inhibitory activity (3CL^pro [3]) | Concentrations with significant and dose-dependent inhibitory activity (PL^pro [4])
1 | Oc1cc(O)cc(Oc2c(O)cc(O)c3c2Oc2c(O)cc(Oc4c(O)cc(Oc5c(O)cc(O)c6c5Oc5c(O)cc(O)cc5O6)cc4O)cc2O3)c1 [Dieckol] | 19.74 ± 0.09 µM | competitive inhibitors | significant and dose-dependent inhibitory activities | dose-dependent inhibitory activity | 5.49 ± 0.092 µM | competitive inhibitors | significant and dose-dependent inhibitory activities | – | – | – | – | – | –
2 | Oc1cc(O)cc(Oc2c(O)cc3c(c2O)Oc2cc(Oc4c(O)cc(O)cc4O)c(O)c(O)c2O3)c1 [Diphlorethohydroxycarmalol] | – | competitive inhibitors | significant and dose-dependent inhibitory activities | greater activities than IPA | – | competitive inhibitors | significant and dose-dependent inhibitory activities | 6.637 ± 0.056 µM | great CPE reduction activity | greatest CPE reduction activity | 3.12 ± 0.066 µM | – | –
3 | Oc1cc(O)c(Oc2cc(O)cc(O)c2-c2c(O)cc(O)cc2Oc2c(O)cc(O)cc2Oc2c(O)cc(O)c3c2Oc2c(O)cc(O)cc2O3)c(O)c1 [Eckmaxol] | – | competitive inhibitors | significant and dose-dependent inhibitory activities | greater activities than IPA | – | competitive inhibitors | significant and dose-dependent inhibitory activities | 19.83 ± 0.121 µM | great CPE reduction activity | – | 1.89 ± 0.078 µM | – | –
4 | Oc1cc(O)cc(Oc2cc(O)c(Oc3c(O)cc(O)cc3Oc3cc(O)c(Oc4cc(O)cc(O)c4Oc4cc(O)cc(O)c4Oc4cc(O)cc(O)c4Oc4cc(O)c(Oc5c(O)cc(O)cc5Oc5c(O)cc(Oc6c(O)cc(Oc7c(O)cc(Oc8c(O)cc(Oc9c(O)cc(Oc%10c(O)cc(Oc%11c(O)cc(O)cc%11O)cc%10O)cc9O)cc8O)cc7O)cc6O)cc5O)c(O)c4)c(O)c3)c(O)c2)c1 [Ishophloroglucin A] | – | competitive inhibitors | greatest inhibitory activity | – | – | competitive inhibitors | greatest inhibitory activity | 1.405 ± 0.007 µM | great CPE reduction activity | – | 0.481 ± 0.031 µM | 6.29 to 75.52 µM | 12.59 to 75.52 µM
